Here are results for 13 compounds from patent US10710979B2, “EGFR kinase inhibitor and preparation method and use thereof” (ZHEJIANG BOSSAN PHARMACEUTICAL CO. LTD., priority 2015, dated 2020).

For test [1], the system named is human hepatoma cell HepG2. Description: Effect of compounds on proliferation of tumor cells (MTT), HepG2. As to conditions: 72 hours. The class given is cell-based. On the procedure: (§1) Human lung cancer cells H1975, H522, human hepatoma cell HepG2, human melanoma cell A375, human epidermal cancer cell A431, and human colon cancer cells COLO205 were cultivated. The cells were collected when they have grown to logarithmic growth phase, and centrifuged at 1000 rpm for 5 min, from which the supernatant was discarded, and the rest was suspended with appropriate amount of medium, and the concentration of cells was adjusted to 2.5-5.5×10^4/ml (once it was 3.0-5.5×10^4/ml). The cell suspension was inoculated into a 96-well cell culture plate with 100 μl per well, and placed in a cell incubator (37° C., 5% CO2) for 24 hours, and then 100 μl of the drug diluted in the cell culture medium was added to each well of the drug group. Three duplicate wells were set for each drug, and the negative control group was medium containing 0.5% DMSO. After being incubated for 72 hours in the incubator, 20 μl of MTT (5 mg/ml) was added to each well, which was placed under 37° C. for 3 hours. 150 μl of DMSO was added to each well and shaken at 37° C. for 5 mins, and absorbance (OD) was determined at 492 nm. The Prism Graphpad statistical software was used to calculate IC50 values.

The next test has as its system human melanoma cell A375. Description: Effect of compounds on proliferation of tumor cells (MTT), A375. The class given is cell-based. To be noted: A-375, 72 hours. On the procedure: as §1
Test [2] relates to subcutaneously transplanted lung cancer H1975 tumors. In words: In vivo efficacy in inhibiting human lung cancer H1975 xenograft. Also noted: species or system BALB/c nude mice. To be noted: 30.0 mg/kg ig qd × 14 d; for Inhibition rate of tumor IR (tumor weight): tumor weight on day 14 vs negative control. Here is the method: The inhibitory effect of ES series compounds to subcutaneously transplanted lung cancer H1975 tumors in nude mice was evaluated.
BALB/c nude mice, female, weighing 17-20 g, purchased from Beijing Weitong Lihua Experimental Animal Technology Co., Ltd. (license number: SCXK (Beijing) 2012-0001). Feeding environment: SPF grade animal room, free feeding, 12 h light/12 h dark.
Under aseptic conditions, H1975 cells in the proliferation stage were taken, whose cell concentration was adjusted after digestion, and seeded at armpit of nude mice with a volume of 0.1 mL. Tumor diameter was measured with vernier caliper, and after the tumor was grown to about 400 mm^3, 30 tumor-bearing mice were selected, which were randomly divided into 5 groups according to the size of the tumors. Each group was dosed according to the set dosing regimen, and the administering day was recorded as D1. The negative control group was given the same amount of vehicle. The longer and shorter diameters of tumor were measured twice a week; meanwhile the body weights of mice were weighed.
The relevant indicators were observed, measured and recorded on the first day of dosing. During the experiment, the tumor size was measured with a vernier caliper to observe the volume change and growth rate of the tumor mass. Tumor-bearing mice were sacrificed at the end of the experiment and the tumor mass was dissected and weighed.
Efficacy evaluation indicators include: relative tumor proliferation rate and weight, general status and other related toxicity indicators. At the end of the experiment, the tumor growth curve and weight change curve were drawn for each group.
The calculation formula of tumor volume (TV) is: TV=1/2×a×b^2, in which a and b respectively represent the longer and shorter diameters of the tumor. The relative tumor volume (RTV) was calculated based on the measured results and the formula was: RTV=Vt/V0, in which V0 is the tumor volume measured before dosing, and Vt is the tumor volume at each measurement after dosing.
The evaluation index of anti-tumor activity is relative tumor proliferation rate T/C (%), and the formula is as follows: […], TRTV: treatment group's RTV; CRTV: negative control group's RTV. T/C (%)≤40% and statistical treatment P<0.05 mean effective. The tumor weight (TW) is lower than that of the negative control group and statistical treatment P<0.05 mean effective. Inhibition rate of tumor IR (%)=(1−TTW/CTW)×100%, TTW: treatment group's TW; CTW: negative control group's TW.
The data was expressed as Mean±SD, and t-tests were used for comparison between groups.

The test system of test [3] is human lung cancer cells H1975. Description: Effect of compounds on proliferation of tumor cells (MTT), H1975. Format: cell-based. To be noted: for IC50: Homo sapiens, NCI-H1975, H1975 cells, 72 hours, MTT. On the procedure: as §1
The test system of test [4] is human epidermal cancer cell A431. In words: Effect of compounds on proliferation of tumor cells (MTT), A431. The class given is cell-based. To be noted: A-431, 72 hours. Here is the method: as §1
For test [5], the system named is human colon cancer cells COLO205. In words: Effect of compounds on proliferation of tumor cells (MTT), COLO205. The class given is cell-based. As to conditions: COLO 205, 72 hours. On the procedure:
as §1

Test [6] deals with human lung cancer cells H522. Description: Effect of compounds on proliferation of tumor cells (MTT), H522. Format: cell-based. As to conditions: NCI-H522, 72 hours. Here is the method: as §1

For the compound `C=CC(=O)Nc1cccc(Nc2nc(Nc3cnc(N4CCN(C)CC4)cc3OC)ncc2C(F)(F)F)c1` [ES-075], the IC50 was found to be 3.54 µM in test [1], 2.75 µM with human melanoma cell A375, 0.0367 µM in test [3] and 1.27 µM in test [4]. In addition, in test [2], the “Inhibition rate of tumor IR (tumor weight)” value (“Inhibition rate of tumor IR” below) is reported as 37.27%.

Turning to `C=CC(=O)Nc1cccc(Nc2nc(Nc3ccc(N4CCN(C(C)=O)CC4)nc3OC)ncc2C(F)(F)F)c1` [ES-071], the 50% inhibitory concentration (IC50) in test [1] is 0.968 µM; in the test with human melanoma cell A375, 2.26 µM; in test [3], 0.0228 µM; in test [4], 0.992 µM. Besides, in test [2], the “Inhibition rate of tumor IR” value turned out to be 50.93%. Also, the “Inhibitory concentration relative to control compound 1686” value in test [3] (for most of the tumor cells of Test Example 1) is “½”.

`C=CC(=O)Nc1cccc(Nc2nc(Nc3ccc(N4CCN(C)CC4)nc3OC)ncc2C(F)(F)F)c1` [ES-072]: the half-maximal inhibitory concentration (IC50) in test [1] was 3.31 µM; with human melanoma cell A375, 2.4 µM; in test [3] it was 0.0342 µM; in test [4], 0.773 µM. Moreover, the “Volume of subcutaneous tumors / anti-tumor effect” value in test [2] (after 14 days) is “better than that of the positive control group CO-1686”. For the same compound, the “Inhibition rate of tumor IR” value in test [2] was determined as 79.42%.

Regarding `C=CC(=O)Nc1cccc(Nc2nc(Nc3ccc(N(C)C4CCN(C(C)=O)C4)nc3OC)ncc2C(F)(F)F)c1` (stereo not drawn) [ES-147], the 50% inhibitory concentration (IC50) in test [1] was found to be 4.28 µM; in the test on human melanoma cell A375 it was 4.2 µM; in test [5] it was 4.29 µM; in test [3] it was 0.464 µM; in test [6] it was 1.74 µM; in test [4], 2.21 µM.

As to `C=CC(=O)Nc1cccc(Nc2nc(Nc3ccc(NC4CCN(C(C)=O)C4)nc3OC)ncc2C(F)(F)F)c1` (stereo not drawn) [ES-123], the half-inhibitory concentration (IC50) in test [1] came to 9.2 µM; in the test on human melanoma cell A375, 8.94 µM; in test [5] it was 4.62 µM; in test [3], 0.15 µM; in test [6], 2.69 µM; in test [4], 4.62 µM.

As to `C=CC(=O)Nc1cccc(Nc2nc(Nc3cnc(N4CCN(C(=O)C5COC5)CC4)nc3OC)ncc2C(F)(F)F)c1` [ES-163], the IC50 was 18.9 µM in test [1]; 19 µM with human melanoma cell A375; 5.49 µM in test [5]; 0.168 µM in test [3]; 5.11 µM in test [6]; 7.5 µM in test [4].

In the case of `C=CC(=O)Nc1cccc(Nc2nc(Nc3ccc(NC4CCN(C)C4)nc3OC)ncc2C(F)(F)F)c1` (stereo not drawn) [ES-146], the IC50 was found to be 13 µM in test [1]; 12.2 µM in the test with human melanoma cell A375; 8.71 µM in test [5]; 0.046 µM in test [3]; 3 µM in test [6]; 3.46 µM in test [4].

`C=CC(=O)Nc1cccc(Nc2nc(Nc3ccc(N4CCN(C(C)=O)CC4)cc3OC)ncc2C(F)(F)F)c1` [Compound 1686, reference compound]: the IC50 in test [1] was 1.49 µM; with human melanoma cell A375, 3 µM; in test [5] it was 4.72 µM; in test [3], 0.0525 µM; in test [6], 0.522 µM; in test [4], 1.57 µM. Besides, the “Inhibition rate of tumor IR” value in test [2] is on record as 50.09%.

Consider `C=CC(=O)Nc1cccc(Nc2nc(Nc3ccc(NC4CCN(CCF)C4)nc3OC)ncc2C(F)(F)F)c1` (stereo not drawn) [ES-124], for which the half-maximal inhibitory concentration (IC50) in test [1] stood at 3.73 µM; with human melanoma cell A375, 6.26 µM; in test [5], 2.21 µM; in test [3] it was 0.0557 µM; in test [6], 1.25 µM; in test [4] it was 2.09 µM.

As to `C=CC(=O)Nc1cccc(Nc2nc(Nc3ccc(N4CCN(S(=O)(=O)N(C)C)CC4)nc3OC)ncc2C(F)(F)F)c1` [ES-132], the IC50 worked out at 4.14 µM in test [1]; 4.42 µM in the test on human melanoma cell A375; 3.78 µM in test [5]; 0.23 µM in test [3]; 2.9 µM in test [6]; 2.62 µM in test [4].

Consider `C=CC(=O)Nc1cccc(Nc2nc(Nc3cnc(N4CCN(C(C)=O)CC4)nc3OC)ncc2C(F)(F)F)c1` [ES-160], for which the IC50 in test [1] is 5.79 µM; with human melanoma cell A375, greater than 100 µM; in test [5] it was 5.08 µM; in test [3] it was 0.69 µM; in test [6], 3.56 µM; in test [4], 7.21 µM.

Turning to `C=CC(=O)Nc1cccc(Nc2nc(Nc3ccc(N4CCN(C(=O)N(C)C)CC4)nc3)ncc2C(F)(F)F)c1` [ES-158], the IC50 came to 3.42 µM in test [1]; 3.76 µM in the test on human melanoma cell A375; 1.93 µM in test [5]; 0.107 µM in test [3]; 0.735 µM in test [6]; 1.07 µM in test [4].

On to `C=CC(=O)Nc1cccc(Nc2nc(Nc3ccc(N(C)C4CCN(C(=O)C5COC5)C4)nc3OC)ncc2C(F)(F)F)c1` (stereo not drawn) [ES-149], for which the IC50 stood at 5.23 µM in test [1]; 6.71 µM in the test with human melanoma cell A375; 5.07 µM in test [5]; 0.0491 µM in test [3]; 3.1 µM in test [6]; 3.92 µM in test [4].
